# Results as given in patent US20140186872A1, “BISACODYL AND ITS ANALOGUES AS DRUGS FOR USE IN THE TREATMENT OF CANCER” (CENTRE NATIONAL DE LA RECHERCHE SCIENTIFIQUE- CNRS, priority 2011, published 2014).
# Where two headings read alike, the source gives them in different places.
# Legend:
# [1] = tested on: human fetal neural stem cells (f-NSC cells); assay: ATP-Glo cell viability on fetal neural stem cells; format: cell-based
# [2] = tested on: proliferating TG1 glioblastoma stem cells; assay: ATP-Glo (Cell Titer Glo) cell viability, dose/response, proliferating TG1 cells; format: cell-based, human; conditions: for effect on survival of proliferating TG1 cells: own culture medium
# Procedure: The TG1 proliferating cells correspond to cells for which medium is renewed regularly, twice weekly.
# The proliferating cells were put back in 1 mL of fresh NS34 medium, dissociated mechanically by pipetting up and down 100 times with a P1000 micropipette preset to 400 μl and counted with Trypan Blue, after dilution in fresh NS34 medium, to obtain a final suspension of 6×10^5 cells/mL.
# (§1) 50 μl of solution containing cells was deposited per well in a 96-well plate (Greiner #655090).
# (§2) The test compounds, in solution of 100% of DMSO were diluted in culture medium: in the absence of DMSO (medium 0% DMSO) or in the presence of 2% of DMSO (medium 2% DMSO) at concentrations of 200 μM, 100 μM, 80 μM, 60 μM, 40 μM, 20 μM, 10 μM and 2 μM. For all these dilutions the final concentration in DMSO was 2% (see Table 1 below; volumes shown make it possible to construct dose/response curves, in triplicate, for 1 compound on a 96-well plate—FIG. 1)
# 50 μL of solution of compound was added at the concentrations specified above to 50 μL of cells in the plate (FIG. 1) (Final concentration of compounds in contact with the cells: 100 μM, 50 μM, 40 μM, 30 μM, 20 μM, 10 μM, 5 μM, 1 μM (in 1% of final DMSO). Final concentration of positive control: 50 μM in 1% of final DMSO. Final concentration of negative control: 1% final DMSO). […]
# (§3) The test of cell viability was carried out using the Cell Titer Glo kit (Promega #G7571). After thawing of the Cell Titer Glo reagent (1 Buffer vial+1 Substrate vial per plate) protected from the light, the contents of the Buffer vial were transferred to the Substrate vial. 100 μl of Cell Titer Glo reagent was deposited on the cells treated with the compounds.
# (§4) The results, which were given for each well in strokes per second (sps), were converted to percentage cell survival relative to the control 1% of DMSO, which was fixed at 100%.
# (§5) The EC50 was determined as the concentration that gives 50% of the response.
# (§6) Glioblastoma (WHO grade IV glioma) stem cells (TG1, TG16 and OB1) were derived from tumor samples of 3 patients at Sainte Anne Hospital (Paris, France), as previously described (48) and expanded as neurosphere cultures. In continuously proliferating cultures, neurospheres were mechanically dissociated into a single-cell suspension twice a week with 90% renewal of their culture medium. Quiescent glioblastoma stem cells were obtained by non-renewal of the culture medium for 9-16 days following cell seeding. The non-proliferating state was assessed by decreased ability of the cells to incorporate EdU (5-ethynyl-2′-deoxyuridine) using the Click-iT™ EdU Flow Cytometry Assay Kit (Invitrogen, France) according to the manufacturer's instructions. […]
# (§7) Confirmed hit compounds from the primary and secondary screens were purchased from Prestwick Chemical and dissolved in DMSO to obtain 10 mM concentrated stock solutions. Hit compound validation was obtained through dose-response curves on the viability of TG1 glioblastoma stem cells under the same experimental conditions (cell density, treatment duration) as described for the primary and secondary screens. Each compound was tested in triplicate in at least three independent experiments on proliferating and quiescent glioblastoma stem TG1 cells.
# (§8) The EC50 value was determined for each compound by fitting the data points according to the following equation: […]
# (§9) where y represents the expected response (expressed as a percentage of cell viability), x is the chemical compound concentration, Smax and Smin are the maximum and minimum viability responses recorded, respectively, and n is the Hill coefficient. Curve fitting was performed using the Microsoft Excel Solver component.
# [3] = tested on: U-87 MG glioblastoma cell line; assay: ATP-Glo cell viability on U-87 MG cells; conditions: for cytotoxic effect on U-87 MG cells: 24 h
# Procedure: (§10) The cells were passed 2 or 3 days before the experiment. On that very day, the cells are detached with trypsin according to the above protocol, then centrifuged for 10 minutes at 800 rpm.
# (§11) The supernatant was removed and the cells were resuspended in culture medium, then counted and finally diluted to give a final suspension of 10^6 cells/mL.
# (§12) 7 mL of cellular suspension at 10^6 cells/mL was prepared for each test compound.
# The glioblastoma U-87 MG cell line was purchased from ATCC and expanded in Eagle's Minimum Essential Medium (EMEM) (ATCC) supplemented with 10% fetal bovine serum (FBS) (Invitrogen, France) and 1% penicillin/streptomycin (Invitrogen, France).
# The pH of the medium solution was then adjusted to values varying between 7.4 and 6.0 with 1M HCl or a sodium acetate buffer (0.1 M pH=4). The culture media were placed in a CO2 cell culture incubator settled to 5% CO2 and 37° C. for 1 hour. The pH was measured again and re-adjusted to the expected values if necessary and culture media were filter-sterilized (0.22 μm filter) prior to their use. The toxicity of DDPM (10 or 100 μM) on proliferating and quiescent TG1 cells was then assessed under the same conditions as those described in the previous section. pH dependency of lead compounds was also assessed for the glioblastoma U-87 MG cell line and on normal fetal neural stem cells and primary human astrocytes in their respective culture media (adjusted to pH 7.4 or 6.2) with HCl (1M) or a sodium acetate buffer (0.1 M pH=4).
# [4] = tested on: quiescent TG1 glioblastoma stem cells; assay: ATP-Glo (Cell Titer Glo) cell viability, dose/response, quiescent TG1 cells; format: cell-based, human; conditions: for EC50: Homo sapiens, quiescent TG1 cells, ATP-Glo, read-out: concentration leading to 50% of effect (EC50); for EC50 / effect on survival of quiescent TG1 cells (words) / cytotoxicity to quiescent TG1 cells: 24 h; for effect on survival of quiescent TG1 cells (words): own conditioned medium; for cytotoxicity to quiescent TG1 cells: 10 μM
# Procedure: The TG1 cells were put into quiescence by keeping the cells in culture without changing the medium from 9 to 16 days. The state of quiescence was verified by non-incorporation of nucleotides into the DNA of the cells (see example 9).
# The quiescent cells were put back in 1 mL of conditioned medium, dissociated mechanically by pipetting up and down 100 times with a P1000 micropipette preset to 400 μl and counted with Trypan Blue, after dilution in conditioned medium, to obtain a final suspension of 8.10^5 cells/mL.
# as §1, §2
# 50 μL of solution of compound was added at the concentrations specified above to 50 μL of cells in the plate (FIG. 1) (Final concentration of compounds in contact with the cells: 100 μM, 50 μM, 40 μM, 30 μM, 20 μM, 10 μM, 5 μM, 1 μM (in 1% of final DMSO). Final concentration of positive control: 50 μM in 1% of final DMSO. Final concentration of negative control: 1% final DMSO).
# The cells were incubated for 23 to 24 hours at 37° C. in an incubator in the presence of 5% CO2 (under humid atmosphere at 95% provided by a reservoir filled with distilled water).
# as §3, §4, §5, §6, §7, §8, §9
# [5] = Stability of the test compounds in the culture medium (HPLC); format: physicochemical; conditions: for half-life at 10 μM: 1% DMSO, 37° C., HPLC
# Procedure: A mass m was weighed with an analytical balance and a volume V of DMSO was added.
# The solution of the compound at 10 mM was diluted to 1/10, still in DMSO.
# The latter solution was diluted to 1/100 in medium in order to obtain a final concentration of 10 μM and 1% of DMSO.
# After homogenizing (2 min), 150 μl was taken and was mixed with 150 μl of acetonitrile to precipitate the proteins present in the medium, which corresponds to a dilution to ½.
# The mixture was vortexed for 1 min and then centrifuged for 10 min at 15000 g.
# The supernatant was again diluted to ½ with 1 volume of milliQ water and then injected in HPLC.
# The same treatment was carried out at times 2 h, 4 h, 6 h and 24 h.
# The solutions were analysed in HPLC using a Gilson chain equipped with a diode array detector and of an automatic injector with an injection loop of 20 μl.
# 10 μM solutions of Bisacodyl and DDPM were prepared in proliferating or quiescent glioblastoma stem cell culture medium in the presence of 1% DMSO. Following protein precipitation (with acetonitrile), samples were analyzed by HPLC after 0, 2, 4, 6 and 24 h of incubation at 37° C.
# HEK293 cells = assay: ATP-Glo cell viability on HEK 293 cells
# Procedure: as §10, §11, §12
# Human Embryonic Kidney 293 cells (HEK 293 cells) were expanded in Minimum Essential Medium (MEM) with 2 mM L-Glutamine, 100 UI/ml-100 μg/ml Penicillin/Streptomycin and 10% FBS.
# [6] = tested on: human primary astrocytes (HA cells); assay: ATP-Glo cell viability on human astrocytes; format: cell-based
# Source text: Primary human astrocytes (HA cells) were expanded in AM Medium (both from ScienCell Research Laboratories, Carlsbad Calif.) according to the manufacturer's instructions.
# [7] = tested on: caspase 3/7 activity in proliferating and quiescent TG1 cells; assay: Apo-ONE Homogeneous Caspase-3/7 Assay in TG1 cells; format: cell-based, human
# Procedure: Proliferating (30 000 cells/well) and quiescent (40 000 cells/well) TG1 cells were suspended in freshly prepared culture medium (pH=7.3) or acidified freshly prepared culture medium (pH=6.4) and treated with increasing concentrations of the lead compounds for 24 hours. Following treatment, apoptosis was measured with the Apo-ONE Homogeneous Caspase-3/7 Assay from Promega according to the manufacturer's instructions. Staurosporine (Sigma, Aldrich) and culture medium were used as positive and negative controls, respectively.
# [8] = tested on: quiescent TG1 glioblastoma stem cells; assay: ATP-Glo (Cell Titer Glo) cell viability, dose/response, quiescent TG1 cells; format: cell-based, human; conditions: treated 24 h in freshly prepared non-conditioned medium, versus own medium
# [9] = 100 μM, acidification with sodium acetate buffer, versus HCl
smiles,measurement,setting,value
"CC(=O)Oc1ccc(C(c2ccc(OC(C)=O)cc2)c2ccccn2)cc1 [Compound 1, Bisacodyl]","effect on survival / toxicity, f-NSC cells",[1],does not display any toxicity
same,cell survival of f-NSC cells,[1]; concentrations of compound up to 100 μM,over 90%
same,effect on survival of proliferating TG1 cells,[2]; 24 h,not on TG1 cells proliferating continuously
same,survival of U-87 MG cells,[3]; concentrations between 10 and 100 μM,90%
same,EC50,[4],1 µM
same,effect on survival of quiescent TG1 cells (words),[4]; listed as Bisacodyl,only active on TG1 cells in quiescence
same,effect on survival of quiescent TG1 cells (words),[4]; listed as bisacodyl,more selective effects
same,half-life at 10 μM,[5]; read-out: half-life in the medium of the proliferating cells (converted),2 h
same,half-life at 10 μM,"[5]; quiescent glioblastoma stem cell culture medium (no cells), read-out: half-life in the medium of the quiescent cells (converted)",4 h
same,toxicity for HEK293 cells,HEK293 cells,does not display any toxicity
same,survival of HEK293 cells,HEK293 cells; 10 μM,100%
same,survival of HEK293 cells,HEK293 cells; 100 μM,80%
same,toxicity for HA cells,[6],does not display any toxicity
same,Emax,"[6]; Homo sapiens, Astrocyte, not due to cell death, read-out: maximum effect on HA cells: reduction of ATP levels",30%
same,survival of human astrocytes (HA),[6]; concentrations above 10 μM,60%
"Oc1ccc(C(c2ccc(O)cc2)c2ccccn2)cc1 [Compound 2, 4,4′-(Pyridin-2-ylmethylene)diphenol]",survival of proliferating TG1 cells,"[2]; 10 μM, 24 h, acidic medium (HCl)",also decreased
same,effect on proliferating TG1 cells,[2]; [9],more pronounced
same,survival of TG1 glioblastoma cancer stem cells (ATP level),"[2]; NS34 medium pH 7.35 or 6.2, 24 or 72 h, Example 13",decreases the survival
same,effect on survival of proliferating TG1 cells,[2]; 24 h,a little more marked
same,effect on survival of proliferating TG1 cells,"[2]; 24 h, listed as DDPM",minor effect
same,cytotoxic activity on proliferating TG1 cells after media exchange,"[2]; treated 24 h in conditioned quiescent cell medium, versus own medium",more pronounced cytotoxic activity
same,percentage of U-87 cell death,"[3]; acidic pH adjusted with sodium acetate buffer, versus HCl",even higher
same,cytotoxic effect on U-87 MG cells,"[3]; pH 6.2 set with 1M HCl, versus physiological pH",significantly higher
same,cytotoxic effect on U-87 MG cells,[3]; physiological pH,no cytotoxic effect
same,cytotoxicity to quiescent TG1 cells,[4]; pH values above 7,little or no effect
same,cytotoxicity to quiescent TG1 cells,[4]; slightly acidic conditions (HCl),cytotoxic
same,effect on quiescent TG1 cells,[4]; [9],more pronounced
same,EC50,[4],~1 µM
same,effect on survival of quiescent TG1 cells (words),[4],effect comparable to bisacodyl
same,effect on survival of quiescent TG1 cells (words),[4]; listed as DDPM,high cytotoxicity
same,change in concentration in the culture media (stability),"[5]; proliferating and quiescent culture medium, up to 24 h",No change
same,effect on ATP levels of human astrocytes,"[6]; pH 7.4 versus 6.2, related to cell death",pH dependent reduction of ATP levels
same,caspase 3/7 activity,"[7]; pH 6.4, 24 h, proliferating and quiescent TG1 cells",stimulates caspase 3/7 activity in a dose-dependent manner
same,pro-apoptotic effect (caspase 3/7 activity),"[7]; physiological pH (pH 7.3), 24 h",not observed
same,effect on quiescent TG1 cells after media exchange,[8],significantly reduced
